Source: US20230085307A1, “PYRIDAZINONE COMPOUND AND HERBICIDE” (NISSAN CHEMICAL CORPORATION, priority 2019, published 2023)

Assays:
persian speedwell [1] = test: Test Example 4: herbicidal effect by soil treatment (Table 19, symbol R); type: in vivo, Persian speedwell (Veronica persica); settings: amount of applied herbicide 320 g/ha
In short: (§1)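 Soil-surface application: an emulsion agent diluted with water to the predetermined dose is sprayed uniformly over seeds lying under roughly 1.5 cm of sterilized diluvial soil. Boxes stay in a greenhouse at 25° C. to 30° C. Three weeks later, each species is graded on previously defined criteria.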

barnyard grass [2] = test: Test Example 4: herbicidal effect by soil treatment (Table 19, symbol H); type: in vivo, barnyard grass (Echinochloa crus-galli); settings: amount of applied herbicide 320 g/ha
In short: as §1

blackgrass [3] = test: Test Example 4: herbicidal effect by soil treatment (Table 19, symbol J); type: in vivo, blackgrass (Alopecurus myosuroides); settings: amount of applied herbicide 320 g/ha
In short: as §1

velvetleaf [4] = test: Test Example 4: herbicidal effect by soil treatment (Table 19, symbol M); type: in vivo, velvetleaf (Abutilon theophrasti); settings: amount of applied herbicide 320 g/ha
In short: as §1

chickweed [5] = test: Test Example 4: herbicidal effect by soil treatment (Table 19, symbol P); type: in vivo, common chickweed (Stellaria media); settings: amount of applied herbicide 320 g/ha
In short: as §1

barnyard grass [6] = test: Test Example 3: herbicidal effect by foliage application, Wagner pot (Table 18, symbol H); type: in vivo, barnyard grass (Echinochloa crus-galli)
In short: (§2)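 Plants were sown in alluvial soil held under 0.1–0.5 cm standing water and grown 14 days in a greenhouse at 25–30 °C. An emulsifiable formulation, water-diluted to the set dose, was then sprayed onto the foliage, and effects were scored three weeks later using previously defined criteria.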

lambsquarters [7] = test: Test Example 4: herbicidal effect by soil treatment (Table 19, symbol O); type: in vivo, lambsquarters (Chenopodium album); settings: amount of applied herbicide 320 g/ha
In short: as §1

oval-leafed pondweed [8] = test: Test Example 1: herbicidal activity, application before weed generation under submerged conditions (Table 16, symbol C); type: in vivo, oval-leafed pondweed (Monochoria vaginalis)
In short: (§3)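 Alluvial soil was flooded to 4 cm depth, weed seeds were sown mixed and 2.5-leaf rice seedlings were transplanted. On sowing day, the compound's emulsion, diluted in water to a set dose, was applied to the water surface. Plants grew at 25–30 °C and were scored 0–5 after three weeks.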

rice flat sedge = test: Test Example 3: herbicidal effect by foliage application, Wagner pot (Table 18, symbol E); type: in vivo, rice flat sedge (Cyperus iria)
In short: as §2

wild oat [9] = test: Test Example 4: herbicidal effect by soil treatment (Table 19, symbol I); type: in vivo, wild oat (Avena fatua); settings: amount of applied herbicide 320 g/ha
In short: as §1

windgrass [10] = test: Test Example 4: herbicidal effect by soil treatment (Table 19, symbol L); type: in vivo, windgrass (Apera spica-venti); settings: amount of applied herbicide 320 g/ha
In short: as §1

oval-leafed pondweed [11] = test: Test Example 2: herbicidal activity, application during weed generation under submerged conditions (Table 17, symbol C); type: in vivo, oval-leafed pondweed (Monochoria vaginalis); settings: AAH 320 g/ha; application during weed generation, submerged conditions
In short: (§4)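 3-wk visual-criteria score after one water-surface dose. Emulsion formulation, water-diluted to set rate; applied at 1–2 leaf stage; alluvial soil, 4 cm standing water; seeds co-sown; greenhouse 25–30° C.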

Japanese bulrush [12] = test: Test Example 1: herbicidal activity, application before weed generation under submerged conditions (Table 16, symbol B); type: in vivo, Japanese bulrush (Schoenoplectus juncoides)
In short: as §3

Japanese bulrush [13] = test: Test Example 2: herbicidal activity, application during weed generation under submerged conditions (Table 17, symbol B); type: in vivo, Japanese bulrush (Schoenoplectus juncoides); settings: AAH 320 g/ha; application during weed generation, submerged conditions
In short: as §4

Chinese sprangletop = test: Test Example 3: herbicidal effect by foliage application, Wagner pot (Table 18, symbol D); type: in vivo, chinese sprangletop (Leptochloa chinensis)
In short: as §2

late watergrass [14] = test: Test Example 1: herbicidal activity, application before weed generation under submerged conditions (Table 16, symbol A); type: in vivo, late watergrass (Echinochloa oryzicola)
In short: as §3

redroot pigweed [15] = test: Test Example 4: herbicidal effect by soil treatment (Table 19, symbol N); type: in vivo, redroot pigweed (Amaranthus retroflexus); settings: amount of applied herbicide 320 g/ha
In short: as §1

Italian ryegrass [16] = test: Test Example 4: herbicidal effect by soil treatment (Table 19, symbol K); type: in vivo, Italian ryegrass (Lolium multiflorum); settings: amount of applied herbicide 320 g/ha
In short: as §1

green foxtail [17] = test: Test Example 4: herbicidal effect by soil treatment (Table 19, symbol G); type: in vivo, green foxtail (Setaria viridis); settings: amount of applied herbicide 320 g/ha
In short: as §1

southern crabgrass [18] = test: Test Example 4: herbicidal effect by soil treatment (Table 19, symbol F); type: in vivo, southern crabgrass (Digitaria ciliaris); settings: amount of applied herbicide 320 g/ha
In short: as §1

late watergrass [19] = test: Test Example 2: herbicidal activity, application during weed generation under submerged conditions (Table 17, symbol A); type: in vivo, late watergrass (Echinochloa oryzicola); settings: AAH 320 g/ha; application during weed generation, submerged conditions
In short: as §4

southern crabgrass [20] = test: Test Example 5: herbicidal effect by foliage application, plastic box (Table 20, symbol F); type: in vivo, southern crabgrass (Digitaria ciliaris); settings: amount of applied herbicide 320 g/ha; foliage application after 14-day growth; evaluated three weeks after application
In short: (§5)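 Sow seeds spot-wise in sterilized diluvial soil; cover with ~1.5 cm soil. Grow 14 days in greenhouse, 25° C. to 30° C. Spray foliage with emulsion diluted to predetermined amount. Rate effect after 3 weeks.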

redroot pigweed [21] = test: Test Example 5: herbicidal effect by foliage application, plastic box (Table 20, symbol N); type: in vivo, redroot pigweed (Amaranthus retroflexus); settings: amount of applied herbicide 320 g/ha; foliage application after 14-day growth; evaluated three weeks after application
In short: as §5

Italian ryegrass [22] = test: Test Example 5: herbicidal effect by foliage application, plastic box (Table 20, symbol K); type: in vivo, Italian ryegrass (Lolium multiflorum); settings: amount of applied herbicide 320 g/ha; foliage application after 14-day growth; evaluated three weeks after application
In short: as §5

wild oat [23] = test: Test Example 5: herbicidal effect by foliage application, plastic box (Table 20, symbol I); type: in vivo, wild oat (Avena fatua); settings: amount of applied herbicide 320 g/ha; foliage application after 14-day growth; evaluated three weeks after application
In short: as §5

lambsquarters [24] = test: Test Example 5: herbicidal effect by foliage application, plastic box (Table 20, symbol O); type: in vivo, lambsquarters (Chenopodium album); settings: amount of applied herbicide 320 g/ha; foliage application after 14-day growth; evaluated three weeks after application
In short: as §5

chickweed [25] = test: Test Example 5: herbicidal effect by foliage application, plastic box (Table 20, symbol P); type: in vivo, common chickweed (Stellaria media); settings: amount of applied herbicide 320 g/ha; foliage application after 14-day growth; evaluated three weeks after application
In short: as §5

barnyard grass [26] = test: Test Example 5: herbicidal effect by foliage application, plastic box (Table 20, symbol H); type: in vivo, barnyard grass (Echinochloa crus-galli); settings: amount of applied herbicide 320 g/ha; foliage application after 14-day growth; evaluated three weeks after application
In short: as §5

green foxtail [27] = test: Test Example 5: herbicidal effect by foliage application, plastic box (Table 20, symbol G); type: in vivo, green foxtail (Setaria viridis); settings: amount of applied herbicide 320 g/ha; foliage application after 14-day growth; evaluated three weeks after application
In short: as §5

persian speedwell [28] = test: Test Example 5: herbicidal effect by foliage application, plastic box (Table 20, symbol R); type: in vivo, Persian speedwell (Veronica persica); settings: amount of applied herbicide 320 g/ha; foliage application after 14-day growth; evaluated three weeks after application
In short: as §5

velvetleaf [29] = test: Test Example 5: herbicidal effect by foliage application, plastic box (Table 20, symbol M); type: in vivo, velvetleaf (Abutilon theophrasti); settings: amount of applied herbicide 320 g/ha; foliage application after 14-day growth; evaluated three weeks after application
In short: as §5

blackgrass [30] = test: Test Example 5: herbicidal effect by foliage application, plastic box (Table 20, symbol J); type: in vivo, blackgrass (Alopecurus myosuroides); settings: amount of applied herbicide 320 g/ha; foliage application after 14-day growth; evaluated three weeks after application
In short: as §5

windgrass [31] = test: Test Example 5: herbicidal effect by foliage application, plastic box (Table 20, symbol L); type: in vivo, windgrass (Apera spica-venti); settings: amount of applied herbicide 320 g/ha; foliage application after 14-day growth; evaluated three weeks after application
In short: as §5

[32] = amount of applied herbicide 320 g/ha

## Cc1nn(C)c(=O)c(-c2c(-c3ccc(Cl)c(F)c3)sc3ccc(F)cc23)c1O [2-350]
Persian speedwell [1]
  herbicidal effect on R: persian speedwell: 5 (Herbicidal rate of 90% or more (almost completely withered))
Barnyard grass [2]
  herbicidal effect on H: barnyard grass: 5 (Herbicidal rate of 90% or more (almost completely withered))
Blackgrass [3]
  herbicidal effect on J: blackgrass: 0 (Herbicidal rate of 5% or less (almost no effect))
Velvetleaf [4]
  herbicidal effect on M: velvetleaf: 3 (Herbicidal rate of 40% or more and less than 70%)
Chickweed [5]
  herbicidal effect on P: chickweed: 3 (Herbicidal rate of 40% or more and less than 70%)
Barnyard grass [6]; [32]
  herbicidal effect on H: barnyard grass: 5 (Herbicidal rate of 90% or more (almost completely withered))
Lambsquarters [7]
  herbicidal effect on O: lambsquarters: 4 (Herbicidal rate of 70% or more and less than 90%)
oval-leafed pondweed [8]; 320 g/ha applied herbicide
  Herbicidal effect on C: oval-leafed pondweed (grade 0-5): 0 (Herbicidal rate of 5% or less (almost no effect))
Rice flat sedge; [32]
  herbicidal effect on E: rice flat sedge: 5 (Herbicidal rate of 90% or more (almost completely withered))
Wild oat [9]
  herbicidal effect on I: wild oat: 0 (Herbicidal rate of 5% or less (almost no effect))
Windgrass [10]
  herbicidal effect on L: windgrass: 4 (Herbicidal rate of 70% or more and less than 90%)
oval-leafed pondweed [11]
  herbicidal effect rating, C: oval-leafed pondweed: 0 (Herbicidal rate of 5% or less (almost no effect))
Japanese bulrush [12]; 320 g/ha applied herbicide
  Herbicidal effect on B: Japanese bulrush (grade 0-5): 0 (Herbicidal rate of 5% or less (almost no effect))
Japanese bulrush [13]
  herbicidal effect rating, B: Japanese bulrush: 2 (Herbicidal rate of 20% or more and less than 40%)
Chinese sprangletop; [32]
  herbicidal effect on D: Chinese sprangletop: 5 (Herbicidal rate of 90% or more (almost completely withered))
Late watergrass [14]; 320 g/ha applied herbicide
  Herbicidal effect on A: late watergrass (grade 0-5): 3 (Herbicidal rate of 40% or more and less than 70%)
Redroot pigweed [15]
  herbicidal effect on N: redroot pigweed: 5 (Herbicidal rate of 90% or more (almost completely withered))
Italian ryegrass [16]
  herbicidal effect on K: Italian ryegrass: 4 (Herbicidal rate of 70% or more and less than 90%)
Green foxtail [17]
  herbicidal effect on G: green foxtail: 5 (Herbicidal rate of 90% or more (almost completely withered))
Southern crabgrass [18]
  herbicidal effect on F: southern crabgrass: 4 (Herbicidal rate of 70% or more and less than 90%)
Late watergrass [19]
  herbicidal effect rating, A: late watergrass: 0 (Herbicidal rate of 5% or less (almost no effect))

## Cc1nn(C)c(=O)c(-c2c(-c3ccc(OC4CCCCO4)cc3)sc3cc(F)c(F)cc23)c1O (stereo not drawn) [5-024]
Southern crabgrass [20]
  Herbicidal effect by foliage application, F: southern crabgrass: 4 (Herbicidal rate of 70% or more and less than 90%)
Redroot pigweed [21]
  Herbicidal effect by foliage application, N: redroot pigweed: 5 (Herbicidal rate of 90% or more (almost completely withered))
Italian ryegrass [22]
  Herbicidal effect by foliage application, K: Italian ryegrass: 0 (Herbicidal rate of 5% or less (almost no effect))
Wild oat [23]
  Herbicidal effect by foliage application, I: wild oat: 0 (Herbicidal rate of 5% or less (almost no effect))
Lambsquarters [24]
  Herbicidal effect by foliage application, O: lambsquarters: 5 (Herbicidal rate of 90% or more (almost completely withered))
Chickweed [25]
  Herbicidal effect by foliage application, P: chickweed: 5 (Herbicidal rate of 90% or more (almost completely withered))
Barnyard grass [6]; 320 g/ha
  herbicidal effect on barnyard grass (H): 4 (Herbicidal rate of 70% or more and less than 90%)
oval-leafed pondweed [8]; [32]
  Herbicidal effect, C: oval-leafed pondweed: 5 (Herbicidal rate of 90% or more (almost completely withered))
Barnyard grass [26]
  Herbicidal effect by foliage application, H: barnyard grass: 3 (Herbicidal rate of 40% or more and less than 70%)
Green foxtail [27]
  Herbicidal effect by foliage application, G: green foxtail: 3 (Herbicidal rate of 40% or more and less than 70%)
Rice flat sedge; 320 g/ha
  herbicidal effect on rice flat sedge (E): 0 (Herbicidal rate of 5% or less (almost no effect))
Persian speedwell [28]
  Herbicidal effect by foliage application, R: persian speedwell: 5 (Herbicidal rate of 90% or more (almost completely withered))
oval-leafed pondweed [11]
  herbicidal effect rating, C: oval-leafed pondweed: 0 (Herbicidal rate of 5% or less (almost no effect))
Japanese bulrush [12]; [32]
  Herbicidal effect, B: Japanese bulrush: 0 (Herbicidal rate of 5% or less (almost no effect))
Japanese bulrush [13]
  herbicidal effect rating, B: Japanese bulrush: 2 (Herbicidal rate of 20% or more and less than 40%)
Chinese sprangletop; 320 g/ha
  herbicidal effect on Chinese sprangletop (D): 3 (Herbicidal rate of 40% or more and less than 70%)
Late watergrass [14]; [32]
  Herbicidal effect, A: late watergrass: 3 (Herbicidal rate of 40% or more and less than 70%)
Velvetleaf [29]
  Herbicidal effect by foliage application, M: velvetleaf: 3 (Herbicidal rate of 40% or more and less than 70%)
Blackgrass [30]
  Herbicidal effect by foliage application, J: blackgrass: 1 (Herbicidal rate of 5% or more and less than 20%)
Windgrass [31]
  Herbicidal effect by foliage application, L: windgrass: 2 (Herbicidal rate of 20% or more and less than 40%)
Late watergrass [19]
  herbicidal effect rating, A: late watergrass: 0 (Herbicidal rate of 5% or less (almost no effect))
